Results as given in US20260159533A1, “INHIBITORS OF COMPLEMENT FACTORS AND USES THEREOF” (Annexon, Inc., priority 2022, published 2026).
Counter-ions that a name gives are not always drawn.

target: T1, human C1s protein (Homo sapiens, UniProt P09871); test: recombinant C1s enzymatic assay (YLGR-Rh110-dPro substrate hydrolysis, fluorescence); type: biochemical; conditions: recombinant human C1s 2.5 nM, substrate YLGR-Rh110-dPro 20 μM, 15 min pre-incubation, 60 min RT; read-out: rec. hC11s pIC50 (converted)
T1 construct: purchased R&D Systems or Complement Technologies 2060-SE or A104
T1 sequence (P09871 16-688): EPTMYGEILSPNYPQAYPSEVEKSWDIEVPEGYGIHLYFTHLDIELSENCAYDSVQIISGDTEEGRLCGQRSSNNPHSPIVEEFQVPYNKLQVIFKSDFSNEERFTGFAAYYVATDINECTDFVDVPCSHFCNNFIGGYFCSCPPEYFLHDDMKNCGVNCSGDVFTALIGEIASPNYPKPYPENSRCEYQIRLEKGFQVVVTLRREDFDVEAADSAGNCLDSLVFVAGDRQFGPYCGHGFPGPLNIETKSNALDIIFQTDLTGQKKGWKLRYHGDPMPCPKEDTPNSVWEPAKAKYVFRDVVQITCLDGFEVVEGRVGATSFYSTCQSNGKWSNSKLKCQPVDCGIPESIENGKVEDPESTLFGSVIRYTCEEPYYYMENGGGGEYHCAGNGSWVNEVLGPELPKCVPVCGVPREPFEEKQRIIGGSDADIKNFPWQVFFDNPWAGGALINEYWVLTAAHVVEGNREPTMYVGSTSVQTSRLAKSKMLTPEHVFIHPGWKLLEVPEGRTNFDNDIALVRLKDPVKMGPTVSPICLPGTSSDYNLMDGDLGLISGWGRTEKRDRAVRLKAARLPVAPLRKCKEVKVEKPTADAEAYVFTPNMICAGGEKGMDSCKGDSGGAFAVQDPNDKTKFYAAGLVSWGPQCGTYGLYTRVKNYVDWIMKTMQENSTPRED
Experimental: Compound testing in the purified or recombinant C1s enzymatic assay C1s is a serine protease; its enzymatic activity is measured in vitro by the hydrolysis of the synthetic substrate YLGR-Rh110-dPro (Kerr F K, O'Brien G, Quinsey N S, Whisstock J C, Boyd S, de la Banda M G, Kaiserman D, Matthews A Y, Bird P I, Pike R N. Elucidation of the substrate specificity of the Cis protease of the classical complement pathway. J. Biol. Chem. (2005) 280, 39510-39514). The enzyme cleaves the substrate with the release of Rh110 which is highly fluorescent. Cis inhibitors prevent the hydrolysis of the substrate thus resulting in a decrease of the signal.
The recombinant C1s enzymatic assay is performed using the human C1s protein (R&D Systems, 2060-SE or Complement Technologies, A104). The assay buffer composition is: 50 mM HEPES pH 7.5 (Sigma, H3375), 150 mM NaCl (Sigma, S7653), 0.2% PEG 8000 (VWR, AA43443-22), 0.01% Pluronic F127 (Sigma, P2243). On the day of the experiment 0.1 mg/mL BSA (Sigma, B4287) is added fresh to the buffer. The test item stock solutions are serially diluted 1:3 or 1:4 or 1:5 with DMSO, 11-point curves, in a 384-well compound plate. Nafamostat concentration curve is always included in the assay plate as a reference control.
The assay plate is prepared by dispensing 0.25 μL from compound plate into a 384-well black assay plate (assay plate, Greiner Fluotrac 200, 781076, VWR 736-0140). The high controls are prepared dispensing in 0.25 μL DMSO in column 23, rows AH or AP and low controls with 0.25 μL of 0.1 μM Nafamostat. Cis solution is prepared as 2× of the 2.5 nM final assay concentration. The YLGR-Rh110-dPro substrate is prepared as 2× of the final assay concentration of 20 μM. 5 μL/well of 2× enzyme solution is dispensed and pre-incubated for 15 min with the compounds. The enzymatic reaction is the started with 5 μL/well of the 2× substrate solution. The plate is incubated for 60 min RT in the dark and fluorescence is measured (ex 485/em 535 nm) using an Envision (PerkinElmer) or an equivalent instrument.

| IC50 [nM] | Structure (SMILES) |
| --- | --- |
| 7.24 | Nc1cnnc2cc(-c3cc(B(O)O)ccc3-c3ncccn3)ccc12 [Example 26, [3-(4-aminocinnolin-7-yl)-4-(pyrimidin-2-yl)phenyl]boronic acid formic acid salt] |
| 0.933 | Nc1cnnc2cc(-c3cc(B(O)O)ccc3-n3nccn3)ccc12 [Example 15, [3-(4-aminocinnolin-7-yl)-4-(2H-1,2,3-triazol-2-yl)phenyl]boronic acid formic acid salt] |
| 1.78 | CC(=O)Nc1cnn(-c2ccc(B(O)O)cc2-c2ccc3c(N)cnnc3c2)c1 [Example 10, [3-(4-aminocinnolin-7-yl)-4-(4-acetamido-1H-pyrazol-1-yl)phenyl]boronic acid formic acid salt] |
| 15.5 | Nc1cnnc2cc(-c3cc(B(O)O)ccc3-c3ccccn3)ccc12 [Example 63, [3-(4-aminocinnolin-7-yl)-4-(2-pyridyl)phenyl]boronic acid formic acid salt] |
| 1.23 | CCOc1cc(-n2cccn2)c(-c2ccc3c(N)cnnc3c2)cc1B(O)O [Example 82, [5-(4-aminocinnolin-7-yl)-2-ethoxy-4-pyrazol-1-yl-phenyl]boronic acid] |
| 1.45 | Nc1cnnc2cc(-c3cc(B(O)O)ccc3-n3cc(F)cn3)ccc12 [Example 11, [3-(4-aminocinnolin-7-yl)-4-(4-fluoro-1H-pyrazol-1-yl)phenyl]boronic acid formic acid salt] |
| 1.51 | CC1COc2cc(-n3cccn3)c(-c3ccc4c(N)cnnc4c3)cc2B(O)O1 (single isomer, unassigned; enantiomer 2) [Example 73, 7-(1-hydroxy-3-methyl-7-pyrazol-1-yl-3,4-dihydro-2,5,1-benzodioxaborepin-8-yl)cinnolin-4-amine enantiomer 2] |
| 1.58 | CC1(C)COc2cc(-n3cccn3)c(-c3ccc4c(N)cnnc4c3)cc2B(O)O1 [Example 77, 7-(1-hydroxy-3,3-dimethyl-7-pyrazol-1-yl-4H-2,5,1-benzodioxaborepin-8-yl)cinnolin-4-amine] |
| 0.724 | COc1cc(-c2ncc(C)o2)c(-c2ccc3c(N)cnnc3c2)cc1B(O)O [Example 88, [5-(4-aminocinnolin-7-yl)-2-methoxy-4-(5-methyloxazol-2-yl)phenyl]boronic acid formic acid salt] |
| 0.589 | Nc1cnnc2cc(-c3cc(B(O)O)ccc3-n3ncnn3)ccc12 [Example 12, [3-(4-aminocinnolin-7-yl)-4-(2H-1,2,3,4-tetrazol-2-yl)phenyl]boronic acid] |
| 1.29 | COc1cc(-c2cc[nH]n2)c(-c2ccc3c(N)cnnc3c2)cc1B(O)O [Example 36, [5-(4-aminocinnolin-7-yl)-2-methoxy-4-(1H-pyrazol-3-yl)phenyl]boronic acid formic acid salt] |
| 1.7 | CC1COc2cc(-n3cccn3)c(-c3ccc4c(N)cnnc4c3)cc2B(O)O1 (single isomer, unassigned; enantiomer 1) [Example 72, 7-(1-hydroxy-3-methyl-7-pyrazol-1-yl-3,4-dihydro-2,5,1-benzodioxaborepin-8-yl)cinnolin-4-amine enantiomer 1] |
| 1.32 | Nc1cnnc2cc(-c3cc(B(O)O)ccc3-n3cncn3)ccc12 [Example 5, [3-(4-aminocinnolin-7-yl)-4-(1H-1,2,4-triazol-1-yl)phenyl]boronic acid formic acid salt] |
| 14.8 | Cc1cc(-n2cccn2)c(-c2ccc3c(N)cnnc3c2)cc1B(O)O [Example 8, [5-(4-aminocinnolin-7-yl)-2-methyl-4-(1H-pyrazol-1-yl)phenyl]boronic acid] |
| 3.89 | COc1cc(-c2ncc[nH]2)c(-c2ccc3c(N)cnnc3c2)cc1B(O)O [Example 46, [5-(4-aminocinnolin-7-yl)-4-(1H-imidazol-2-yl)-2-methoxy-phenyl]boronic acid] |
| 5.5 | COc1cc(-c2c[nH]cn2)c(-c2ccc3c(N)cnnc3c2)cc1B(O)O [Example 45, [5-(4-aminocinnolin-7-yl)-4-(1H-imidazol-4-yl)-2-methoxyphenyl]boronic acid] |
| 0.912 | COc1cnn(-c2cc(OC)c(B(O)O)cc2-c2ccc3c(N)cnnc3c2)c1 [Example 37, [5-(4-aminocinnolin-7-yl)-2-methoxy-4-(4-methoxypyrazol-1-yl)phenyl]boronic acid formic acid salt] |
| 2.09 | CC1COB(O)c2cc(-c3ccc4c(N)cnnc4c3)c(-n3cccn3)cc2O1 (centres unmarked) [Example 71, 7-(1-hydroxy-4-methyl-7-pyrazol-1-yl-3,4-dihydro-2,5,1-benzodioxaborepin-8-yl)cinnolin-4-amine] |
| 1.2 | COc1cc(-n2cc(OC(F)(F)F)cn2)c(-c2ccc3c(N)cnnc3c2)cc1B(O)O [Example 85, [5-(4-aminocinnolin-7-yl)-2-methoxy-4-[4-(trifluoromethoxy)pyrazol-1-yl]phenyl]boronic acid formic acid salt] |
| 0.977 | COc1cc(-c2ncc(F)s2)c(-c2ccc3c(N)cnnc3c2)cc1B(O)O [Example 75, [5-(4-aminocinnolin-7-yl)-4-(5-fluorothiazol-2-yl)-2-methoxy-phenyl]boronic acid] |
| 0.741 | COc1cc(-c2ncc(C(F)F)s2)c(-c2ccc3c(N)cnnc3c2)cc1B(O)O [Example 86, [5-(4-aminocinnolin-7-yl)-4-[5-(difluoromethyl)thiazol-2-yl]-2-methoxy-phenyl]boronic acid] |
| 0.832 | COc1cc(-c2ncco2)c(-c2ccc3c(N)cnnc3c2)cc1B(O)O [Example 32, [5-(4-aminocinnolin-7-yl)-2-methoxy-4-(1,3-oxazol-2-yl)phenyl]boronic acid formic acid salt] |
| 1.05 | COc1cc(-c2nc[nH]n2)c(-c2ccc3c(N)cnnc3c2)cc1B(O)O [Example 31, [5-(4-aminocinnolin-7-yl)-2-methoxy-4-(1H-1,2,4-triazol-3-yl)phenyl]boronic acid] |
| 0.977 | COc1cc(-n2cc(C(F)F)cn2)c(-c2ccc3c(N)cnnc3c2)cc1B(O)O [Example 29, [5-(4-aminocinnolin-7-yl)-4-[4-(difluoromethyl)-1H-pyrazol-1-yl]-2-methoxyphenyl]boronic acid formic acid salt] |
| 0.468 | COc1cc(-c2ncns2)c(-c2ccc3c(N)cnnc3c2)cc1B(O)O [Example 91, [5-(4-aminocinnolin-7-yl)-2-methoxy-4-(1,2,4-thiadiazol-5-yl)phenyl]boronic acid formic acid salt] |
| 34.7 | Nc1cnnc2cc(-c3cc(B(O)O)ccc3-c3cc(C(F)(F)F)[nH]n3)ccc12 [Example 19, [3-(4-aminocinnolin-7-yl)-4-[5-(trifluoromethyl)-1H-pyrazol-3-yl]phenyl]boronic acid] |
| 1.02 | COc1cc(-c2nccs2)c(-c2ccc3c(N)cnnc3c2)cc1B(O)O [Example 38, [5-(4-aminocinnolin-7-yl)-2-methoxy-4-thiazol-2-yl-phenyl]boronic acid formic acid salt] |
| 2.69 | CC(C)Oc1cc(-n2cccn2)c(-c2ccc3c(N)cnnc3c2)cc1B(O)O [Example 39, [5-(4-aminocinnolin-7-yl)-2-propan-2-yloxy-4-pyrazol-1-ylphenyl]boronic acid formic acid salt] |
| 3.24 | Nc1cnnc2cc(-c3cc(B(O)O)ccc3-n3cccn3)ccc12 [Example 1, [3-(4-aminocinnolin-7-yl)-4-(1H-pyrazol-1-yl)phenyl]boronic acid] |
